# Key:
# Type in all cases: functional
# CAKI-1 [1] = assay: Growth inhibition of human CAKI-1 cells assessed as growth inhibition at 10 uM by sulforhodamine B assay; details: read-out: GI
# A498 = assay: Growth inhibition of human A498 cells assessed as growth inhibition at 10 uM by sulforhodamine B assay; details: read-out: GI
# SK-OV-3 [2] = assay: Growth inhibition of human SKOV3 cells assessed as growth inhibition at 10 uM by sulforhodamine B assay; details: read-out: GI
# OVCAR-8 [3] = assay: Growth inhibition of human OVCAR8 cells assessed as growth inhibition at 10 uM by sulforhodamine B assay; details: read-out: GI
# OVCAR-4 [4] = assay: Growth inhibition of human OVCAR4 cells assessed as growth inhibition at 10 uM by sulforhodamine B assay; details: read-out: GI
# UACC-257 [5] = assay: Growth inhibition of human UACC257 cells assessed as growth inhibition at 10 uM by sulforhodamine B assay; details: read-out: GI
# SNB-75 [6] = assay: Growth inhibition of human SNB75 cells assessed as growth inhibition at 10 uM by sulforhodamine B assay; details: read-out: GI
# HT-29 = assay: Growth inhibition of human HT-29 cells assessed as growth inhibition at 10 uM by sulforhodamine B assay; details: read-out: GI
# NCI-H23 [7] = assay: Growth inhibition of human NCI-H23 cells assessed as growth inhibition at 10 uM by sulforhodamine B assay; details: read-out: GI
# HOP-62 [8] = assay: Growth inhibition of human HOP62 cells assessed as growth inhibition at 10 uM by sulforhodamine B assay; details: read-out: GI
# SR [9] = assay: Growth inhibition of human SR cells assessed as growth inhibition at 10 uM by sulforhodamine B assay; details: read-out: GI
# [10] = Growth inhibition of human Hs 578T cells assessed as cell growth at 10 uM by sulforhodamine B assay; details: read-out: Activity
# TK-10 = assay: Growth inhibition of human TK10 cells assessed as cell growth at 10 uM by sulforhodamine B assay; details: read-out: Activity
# SN12C = assay: Growth inhibition of human SN12C cells assessed as cell growth at 10 uM by sulforhodamine B assay; details: read-out: Activity
# CAKI-1 [11] = assay: Growth inhibition of human CAKI-1 cells assessed as cell growth at 10 uM by sulforhodamine B assay; details: read-out: Activity
# SK-OV-3 [12] = assay: Growth inhibition of human SKOV3 cells assessed as cell growth at 10 uM by sulforhodamine B assay; details: read-out: Activity
# [13] = Growth inhibition of human NCI-ADR-RES cells assessed as cell growth at 10 uM by sulforhodamine B assay; details: read-out: Activity
# OVCAR-8 [14] = assay: Growth inhibition of human OVCAR8 cells assessed as cell growth at 10 uM by sulforhodamine B assay; details: read-out: Activity
# SNB-75 [15] = assay: Growth inhibition of human SNB75 cells assessed as cell growth at 10 uM by sulforhodamine B assay; details: read-out: Activity
# HCT-116 = assay: Growth inhibition of human HCT116 cells assessed as cell growth at 10 uM by sulforhodamine B assay; details: read-out: Activity
# NCI-H522 = assay: Growth inhibition of human NCI-H522 cells assessed as cell growth at 10 uM by sulforhodamine B assay; details: read-out: Activity
# HOP-62 [16] = assay: Growth inhibition of human HOP62 cells assessed as cell growth at 10 uM by sulforhodamine B assay; details: read-out: Activity
# SK-MEL-2 = assay: Growth inhibition of human SK-MEL-2 cells assessed as cell growth at 10^-8 M by sulforhodamine B assay; details: read-out: Activity
# U-251 = assay: Growth inhibition of human U251 cells assessed as cell growth at 10^-8 M by sulforhodamine B assay; details: read-out: Activity
# OVCAR-8 [17] = assay: Growth inhibition of human OVCAR8 cells by sulforhodamine B assay
# UO-31 [18] = assay: Growth inhibition of human UO31 cells assessed as cell growth at 10^-4 M by sulforhodamine B assay; details: read-out: Activity
# [19] = Growth inhibition of human NCI-ADR-RES cells assessed as cell growth at 10^-4 M by sulforhodamine B assay; details: read-out: Activity
# MDA-MB-435 [20] = assay: Growth inhibition of human MDA-MB-435 cells assessed as cell growth at 10^-4 M by sulforhodamine B assay; details: read-out: Activity
# SR [21] = assay: Growth inhibition of human SR cells assessed as cell growth at 10^-4 M by sulforhodamine B assay; details: read-out: Activity
# K562 = assay: Growth inhibition of human K562 cells assessed as cell growth at 10^-4 M by sulforhodamine B assay; details: read-out: Activity
# UACC-257 [22] = assay: Growth inhibition of human UACC257 cells assessed as cell growth at 10^-6 M by sulforhodamine B assay; details: read-out: Activity
# SK-MEL-28 = assay: Growth inhibition of human SK-MEL-28 cells assessed as cell growth at 10^-6 M by sulforhodamine B assay; details: read-out: Activity
# MDA-MB-435 [23] = assay: Growth inhibition of human MDA-MB-435 cells assessed as cell growth at 10^-6 M by sulforhodamine B assay; details: read-out: Activity
# Malme-3M = assay: Growth inhibition of human MALME-3M cells assessed as cell growth at 10^-6 M by sulforhodamine B assay; details: read-out: Activity
# LOX IMVI = assay: Growth inhibition of human LOXIMVI cells assessed as cell growth at 10^-6 M by sulforhodamine B assay; details: read-out: Activity
# SF-295 = assay: Growth inhibition of human SF295 cells assessed as cell growth at 10^-6 M by sulforhodamine B assay; details: read-out: Activity
# HOP-92 = assay: Growth inhibition of human HOP92 cells assessed as cell growth at 10^-6 M by sulforhodamine B assay; details: read-out: Activity
# HOP-62 [24] = assay: Growth inhibition of human HOP62 cells assessed as cell growth at 10^-6 M by sulforhodamine B assay; details: read-out: Activity
# RPMI-8226 = assay: Growth inhibition of human RPMI8226 cells assessed as cell growth at 10^-6 M by sulforhodamine B assay; details: read-out: Activity
# UACC-62 = assay: Growth inhibition of human UACC62 cells assessed as cell growth at 10^-7 M by sulforhodamine B assay; details: read-out: Activity
# SF-268 = assay: Growth inhibition of human SF268 cells assessed as cell growth at 10^-7 M by sulforhodamine B assay; details: read-out: Activity
# KM12 = assay: Growth inhibition of human KM12 cells assessed as cell growth at 10^-7 M by sulforhodamine B assay; details: read-out: Activity
# NCI-H23 [25] = assay: Growth inhibition of human NCI-H23 cells assessed as cell growth at 10^-7 M by sulforhodamine B assay; details: read-out: Activity
# SR [26] = assay: Growth inhibition of human SR cells assessed as cell growth at 10^-7 M by sulforhodamine B assay; details: read-out: Activity
# BT-549 = assay: Growth inhibition of human BT549 cells assessed as cell growth at 10^-8 M by sulforhodamine B assay; details: read-out: Activity
# MDA-MB-231 = assay: Growth inhibition of human MDA-MB-231 cells assessed as cell growth at 10^-8 M by sulforhodamine B assay; details: read-out: Activity
# UO-31 [27] = assay: Growth inhibition of human UO31 cells assessed as cell growth at 10^-8 M by sulforhodamine B assay; details: read-out: Activity
# OVCAR-4 [28] = assay: Growth inhibition of human OVCAR4 cells assessed as cell growth at 10^-8 M by sulforhodamine B assay; details: read-out: Activity
compound,measurement,setting,value
C/C=C(/C)C(=O)O[C@@H]1CC(C)(C)C[C@H]2C3=CC[C@@H]4[C@@]5(C)CCC(=O)C(C)(C)[C@@H]5CC[C@@]4(C)[C@]3(C)CC[C@@]12C(=O)O [LANTADENE A],inhibition of growth at 10 µM,CAKI-1 [1],51.6%
same,inhibition of growth at 10 µM,A498,23.8%
same,inhibition of growth at 10 µM,SK-OV-3 [2],< 10%
same,inhibition of growth at 10 µM,OVCAR-8 [3],36.3%
same,inhibition of growth at 10 µM,OVCAR-4 [4],23.1%
same,inhibition of growth at 10 µM,UACC-257 [5],30%
same,inhibition of growth at 10 µM,SNB-75 [6],13.1%
same,inhibition of growth at 10 µM,HT-29,32.1%
same,inhibition of growth at 10 µM,NCI-H23 [7],42%
same,inhibition of growth at 10 µM,HOP-62 [8],24.4%
same,inhibition of growth at 10 µM,SR [9],30.5%
same,growth at 10 µM,[10],78.8%
same,growth at 10 µM,TK-10,83.3%
same,growth at 10 µM,SN12C,52.4%
same,growth at 10 µM,CAKI-1 [11],48.4%
same,growth at 10 µM,SK-OV-3 [12],90.1%
same,growth at 10 µM,[13],73.1%
same,growth at 10 µM,OVCAR-8 [14],63.7%
same,growth at 10 µM,SNB-75 [15],86.9%
same,growth at 10 µM,HCT-116,34%
same,growth at 10 µM,NCI-H522,66.1%
same,growth at 10 µM,HOP-62 [16],75.6%
same,growth at 0.01 µM,SK-MEL-2,111%
same,growth at 0.01 µM,U-251,98%
same,GI50,OVCAR-8 [17]; read-out: GI50,4.97 µM
same,CC50,OVCAR-8 [17]; read-out: LC50 (the source's name),> 100 µM
same,TGI,OVCAR-8 [17]; read-out: TGI,> 100 µM
same,GI50,OVCAR-8 [17]; read-out: pGI50 (converted),5.01 µM
same,CC50,OVCAR-8 [17]; read-out: pLC50 (the source's name) (converted),> 100 µM
same,TGI,OVCAR-8 [17]; read-out: pTGI (converted),> 100 µM
same,growth at 100 µM,UO-31 [18],6%
same,growth at 100 µM,[19],18%
same,growth at 100 µM,MDA-MB-435 [20],25%
same,growth at 100 µM,SR [21],12%
same,growth at 100 µM,K562,28%
same,growth at 1 µM,UACC-257 [22],91%
same,growth at 1 µM,SK-MEL-28,95%
same,growth at 1 µM,MDA-MB-435 [23],90%
same,growth at 1 µM,Malme-3M,91%
same,growth at 1 µM,LOX IMVI,92%
same,growth at 1 µM,SF-295,88%
same,growth at 1 µM,HOP-92,56%
same,growth at 1 µM,HOP-62 [24],98%
same,growth at 1 µM,RPMI-8226,64%
same,growth at 0.1 µM,UACC-62,85%
same,growth at 0.1 µM,SF-268,101%
same,growth at 0.1 µM,KM12,102%
same,growth at 0.1 µM,NCI-H23 [25],99%
same,growth at 0.1 µM,SR [26],79%
same,growth at 0.01 µM,BT-549,99%
same,growth at 0.01 µM,MDA-MB-231,99%
same,growth at 0.01 µM,UO-31 [27],96%
same,growth at 0.01 µM,OVCAR-4 [28],95%

# From ChEMBL document CHEMBL2413072, “Synthesis and in vitro anticancer studies of novel C-2 arylidene congeners of lantadenes” (2013)
